Where two headings read alike, the source gives them in different places.
Experiments:
[1] = test system: Puccinia recondita; experiment: In vivo preventive test on Puccinia recondita (brown rust on wheat), Examples C and R3; settings: Puccinia recondita, 264 h, preventive spray, evaluated 11 days after inoculation
[2] = test system: Pyrenophora teres; experiment: In vivo preventive test on Pyrenophora teres (net blotch on barley), Examples D, Q2 and R4; settings: Pyrenophora teres, 336 h; for pest or weed control at 100 ppm: Example R4, rate of application 100 ppm
[3] = test system: Sphaerotheca fuliginea; experiment: In vivo preventive test on Sphaerotheca fuliginea (powdery mildew on cucurbits), Examples F and R6; settings: Podosphaera fuliginea, 360 h, preventive spray, evaluated 15 days after inoculation
[4] = test system: Venturia inaequalis; experiment: In vivo preventive Venturia test (apples), Example J; settings: 240 h, read-out: efficacy
Method: After the spray coating has dried on, the plants are inoculated with an aqueous conidia suspension of the causal agent of apple scab (Venturia inaequalis) and then remain for 1 day in an incubation cabinet at approximately 20° C. and a relative atmospheric humidity of 100%.
The plants are then placed in a greenhouse at approximately 21° C. and a relative atmospheric humidity of approximately 90%.
The test is evaluated 10 days after the inoculation.

[5] = test system: Phakopsora pachyrhizi; experiment: In vivo preventive Phakopsora test (soybeans), Example I; settings: 168 h, 100 ppm of active ingredient, preventive spray, evaluated 7 days after inoculation, read-out: efficacy
[6] = test system: Botrytis cinerea; experiment: In vivo preventive test on Botrytis cinerea (grey mould) on gherkin, Examples B, Q1 and R2; settings: Botrytis cinerea; for pest or weed control at 100 ppm: Example R2, rate of application 100 ppm
[7] = test system: Fusarium graminearum; experiment: whole plant or invertebrate; assay type: in vivo; settings: in Hordeum vulgare, 120 h, read-out: efficacy
[8] = test system: Leptosphaeria nodorum; experiment: In vivo preventive Leptosphaeria nodorum test (wheat), Example N; settings: Parastagonospora nodorum, 192 h, 500 ppm of active ingredient, preventive spray, evaluated 8 days after inoculation, read-out: efficacy
Text: After the spray coating has been dried, the plants are sprayed with a spore suspension of Leptosphaeria nodorum.

[9] = test system: Pyricularia oryzae; experiment: whole plant or invertebrate; assay type: in vivo; settings: 192 h, read-out: efficacy
[10] = test system: Septoria tritici; experiment: In vivo preventive test on Septoria tritici (leaf spot on wheat), Examples E, Q3 and R5; settings: Zymoseptoria tritici, 576 h, preventive spray, evaluated 24 days after inoculation
[11] = Measurement of LogP values by HPLC on reversed phase columns (EEC directive 79/831 Annex V.A8); assay type: physicochemical; settings: method [a]: LC-UV, acidic range, 0.1% formic acid in water and acetonitrile as eluent; Table 1
Method: Measurement of Log P values was performed as outlined above.

[12] = test system: Blumeria graminis fsp. hordei; experiment: In vivo preventive Blumeria test (barley), Example K; settings: 168 h, 500 ppm of active ingredient, preventive spray, evaluated 7 days after inoculation, read-out: efficacy
Text: After the spray coating has been dried, the plants are dusted with spores of Blumeria graminis fsp. hordei.

[13] = test system: Alternaria solani; experiment: In vivo preventive Alternaria test (tomatoes), Example H; settings: 72 h, 100 ppm of active ingredient, preventive spray, evaluated 3 days after inoculation, read-out: efficacy
[14] = test system: Alternaria brassicae; experiment: In vivo preventive test on Alternaria brassicae (leaf spot on radish), Examples A and R1; settings: Alternaria brassicae, 144 h; for pest or weed control at 100 ppm: Example R1, rate of application 100 ppm
[15] = test system: Uromyces appendiculatus; experiment: In vivo preventive test on Uromyces appendiculatus (bean rust), Examples G and R7; settings: 264 h, preventive spray, evaluated 11 days after inoculation
[16] = test system: Fusarium nivale (var. majus); experiment: In vivo preventive Fusarium nivale (var. majus) test (wheat), Example O; settings: Microdochium nivale, 120 h, 500 ppm of active ingredient, preventive spray, evaluated 5 days after inoculation, read-out: efficacy
Text: After the spray coating has been dried, the plants are slightly injured by using a sandblast and afterwards they are sprayed with a conidia suspension of Fusarium nivale (var. majus).

[17] = test system: Fusarium culmorum; experiment: In vivo preventive Fusarium culmorum test (wheat), Example L; settings: 120 h, 500 ppm of active ingredient, preventive spray, evaluated 5 days after inoculation, read-out: efficacy
Method: After the spray coating has been dried, the plants are slightly injured by using a sandblast and afterwards they are sprayed with a conidia suspension of Fusarium culmorum.
The test is evaluated 5 days after the inoculation.

[18] = 500 ppm of active ingredient, wheat, read-out: efficacy
[19] = Example R3, wheat, read-out: Efficacy in %
[20] = Example R3, wheat, 500 ppm, read-out: Efficacy in %
[21] = 500 ppm of active ingredient, preventive spray, evaluated 14 days after inoculation, read-out: efficacy
[22] = Example R4, rate of application 500 ppm, read-out: Efficacy in %
[23] = 500 ppm of active ingredient, gherkin, read-out: efficacy
[24] = Example R6, gherkin, read-out: Efficacy in %
[25] = Example R6, gherkin, 500 ppm, read-out: Efficacy in %
[26] = 500 ppm of active ingredient, preventive spray, evaluated 4 to 5 days after inoculation, read-out: efficacy
[27] = Example R2, rate of application 500 ppm, read-out: Efficacy in %
[28] = Example R5, wheat, read-out: Efficacy in %
[29] = Example R5, wheat, 500 ppm, read-out: Efficacy in %
[30] = 500 ppm of active ingredient, preventive spray, evaluated 6 days after inoculation, read-out: efficacy
[31] = Example R1, rate of application 500 ppm, read-out: Efficacy in %
[32] = 500 ppm of active ingredient, bean, read-out: efficacy
[33] = Example R7, bean, read-out: Efficacy in %
[34] = Example R7, bean, 500 ppm, read-out: Efficacy in %

Row | SMILES | pest or weed control at 500 ppm [1, 18] | pest or weed control at 500 ppm [2, 21] | pest or weed control at 500 ppm [3, 23] | pest or weed control at 100 ppm [4] | pest or weed control at 100 ppm [5] | pest or weed control at 500 ppm [6, 26] | pest or weed control at 500 ppm [7] | pest or weed control at 500 ppm [8] | pest or weed control at 500 ppm [9] | pest or weed control at 500 ppm [10, 18] | chromatographic logP [11] | pest or weed control at 500 ppm [12] | pest or weed control at 100 ppm [13] | pest or weed control at 500 ppm [14, 30] | pest or weed control at 500 ppm [15, 32] | pest or weed control at 500 ppm [16] | other results
1 | OC(Cc1ccccc1Cl)(Cn1cncc1Br)C1(Cl)CC1 (stereo not shown) [Example I-04] | 90 to 100% | 90 to 100% | 90 to 100% | 90 to 100% | 90 to 100% | 90 to 100% | 70 to 79% | 90 to 100% | 90 to 100% | 90 to 100% | 2.27 | 90 to 100% | 90 to 100% | 70 to 79% | 90 to 100% | 90 to 100% | pest or weed control at 100 ppm [1, 19]: 88%; pest or weed control at 500 ppm [1, 20]: 94%; pest or weed control at 100 ppm ([2]; read-out: Efficacy in %): 71%; pest or weed control at 500 ppm [2, 22]: 93%; pest or weed control at 100 ppm [3, 24]: 100%; pest or weed control at 500 ppm [3, 25]: 100%; pest or weed control at 100 ppm ([6]; read-out: Efficacy in %): 90%; pest or weed control at 500 ppm [6, 27]: 100%; pest or weed control at 100 ppm [10, 28]: 97%; pest or weed control at 500 ppm [10, 29]: 100%; pest or weed control at 100 ppm ([14]; read-out: Efficacy in %): 20%; pest or weed control at 500 ppm [14, 31]: 70%; pest or weed control at 100 ppm [15, 33]: 100%; pest or weed control at 500 ppm [15, 34]: 100%
2 | OC(Cc1ccc(F)cc1Cl)(Cn1cncc1Cl)C1(Cl)CC1 (stereo not shown) [Example I-08] | 90 to 100% | 80 to 89% | 90 to 100% | 90 to 100% | 90 to 100% | 90 to 100% | 70 to 79% | 90 to 100% | 70 to 79% | 90 to 100% | 2.47 | 90 to 100% | 90 to 100% |  | 90 to 100% | 90 to 100% | 
3 | OC(Cc1ccccc1F)(Cn1cncc1Cl)C1(Cl)CC1 (stereo not shown) [Example I-32] | 90 to 100% | 80 to 89% | 90 to 100% | 90 to 100% | 90 to 100% | 90 to 100% | 70 to 79% | 80 to 89% |  | 90 to 100% | 2.07 | 90 to 100% | 90 to 100% | 90 to 100% | 90 to 100% | 80 to 89% | pest or weed control at 100 ppm [1, 19]: 78%; pest or weed control at 500 ppm [1, 20]: 94%; pest or weed control at 100 ppm ([2]; read-out: Efficacy in %): 78%; pest or weed control at 500 ppm [2, 22]: 89%; pest or weed control at 100 ppm [3, 24]: 100%; pest or weed control at 500 ppm [3, 25]: 100%; pest or weed control at 100 ppm ([6]; read-out: Efficacy in %): 99%; pest or weed control at 500 ppm [6, 27]: 100%; pest or weed control at 100 ppm [10, 28]: 71%; pest or weed control at 500 ppm [10, 29]: 100%; pest or weed control at 100 ppm ([14]; read-out: Efficacy in %): 50%; pest or weed control at 500 ppm [14, 31]: 92%; pest or weed control at 100 ppm [15, 33]: 81%; pest or weed control at 500 ppm [15, 34]: 100%
4 | N#Cc1cncn1CC(O)(Cc1ccc(Br)cc1F)C1(Cl)CC1 (stereo not shown) [Example I-42] | 90 to 100% | 70 to 79% | 90 to 100% | 80 to 89% | 90 to 100% | 80 to 89% | 80 to 89% | 90 to 100% | 80 to 89% | 90 to 100% | 3.24 | 90 to 100% | 70 to 79% |  | 90 to 100% | 80 to 89% | 
5 | N#Cc1cncn1CC(O)(Cc1ccc(F)cc1F)C1(F)CC1 (stereo not shown) [Example I-97] | 90 to 100% | 80 to 89% | 90 to 100% | 80 to 89% | 90 to 100% |  | 90 to 100% |  | 70 to 79% | 90 to 100% | 2.39 | 90 to 100% | 80 to 89% |  | 90 to 100% | 90 to 100% | pest or weed control at 500 ppm [17]: 90 to 100%
6 | N#Cc1cncn1CC(O)(Cc1ccccc1F)C1(F)CC1 (stereo not shown) [Example I-99] | 90 to 100% | 90 to 100% | 90 to 100% | 80 to 89% | 90 to 100% | 90 to 100% | 90 to 100% | 90 to 100% | 80 to 89% | 90 to 100% | 2.01 | 90 to 100% | 90 to 100% | 80 to 89% | 90 to 100% | 90 to 100% | 
7 | N#Cc1cncn1CC(O)(Cc1ccc(F)cc1F)C1(Cl)CC1 (stereo not shown) [Example I-125] | 90 to 100% |  | 90 to 100% | 90 to 100% | 90 to 100% | 80 to 89% | 90 to 100% | 80 to 89% | 80 to 89% | 90 to 100% | 2.78 | 90 to 100% | 90 to 100% |  | 90 to 100% | 90 to 100% | 
8 | N#Cc1cncn1CC(O)(Cc1cccc(F)c1F)C1(Cl)CC1 (stereo not shown) [Example I-146] | 90 to 100% | 90 to 100% | 90 to 100% | 90 to 100% | 90 to 100% | 90 to 100% | 90 to 100% | 90 to 100% | 70 to 79% | 90 to 100% | 2.75 | 90 to 100% | 90 to 100% |  | 90 to 100% | 90 to 100% | 
9 | OC(Cc1cccc(F)c1F)(Cn1cncc1Cl)C1(Cl)CC1 (stereo not shown) [Example I-147] | 90 to 100% | 90 to 100% | 90 to 100% | 90 to 100% | 90 to 100% | 90 to 100% | 90 to 100% | 90 to 100% | 80 to 89% | 90 to 100% | 2.17 | 90 to 100% | 90 to 100% |  | 90 to 100% | 90 to 100% | 
